Columns and labels:
Format in all cases: functional
Conditions in all cases: read-out: ED50 (the source's name)
SK-MEL-28 = test: Cytotoxicity against human SK-MEL-28 cells
HT-29 = test: Cytotoxicity against human HT-29 cells
P388 = test: Cytotoxicity against mouse P388 cells
A549 = test: Cytotoxicity against human A549 cells

Measured: EC50

CC(C)=CCC[C@@H](C)[C@H]1C[C@@H]2OC(=O)C[C@@H]3C(=O)CC[C@@]1(C)[C@H]23 [3-EPI-APLYKURODINONE B]
2.5 µg/mL: SK-MEL-28 | HT-29 | P388 | A549

From ChEMBL document CHEMBL1146415, “3-Epi-aplykurodinone B, a new degraded sterol from Aplysia fasciata” (1997)
